Data on eight molecules can be found in publication PMC10895652, “Preclinical Evaluation of Novel Positron Emission Tomography (PET) Probes for Imaging Leucine-Rich Repeat Kinase 2 (LRRK2)” (Journal of Medicinal Chemistry, 2024).

One may read the Kd as a measure of binding affinity in units of concentration. For orientation: IC50 means the concentration at which inhibition is half-maximal. The term LogD denotes the decadic logarithm of the distribution of all forms, ionised or not, between an organic phase and buffer at a given pH. What is called pKa is the negative logarithm of the acid dissociation constant.

Data set [1] has as its target LRRK2. More on the design: method as in PMID 31365783, PMID 36256881, PMID 33582389, PMID 33248850. The following applies: saturation assays; cited from earlier work.
The next data set concerns MDR1. The following applies: cited from earlier work.
For the next data set, the system named is LRRK2 G2019S. The following applies: cited from earlier work.
Another data set deals with THLE cells. The following applies: THLE cell viability; cited from earlier work.
For data set [2], the system named is LRRK2. The following applies: read-out: WCA IC50, cited from earlier work.
For data set [3] the following is noted: cited from earlier work; for RRCK Papp AB: molecular formula strings file.
The next data set has as its system LRRK2 WT. The following applies: cited from earlier work.
For data set [4] the following is noted: human liver microsomal clearance; cited from earlier work. A general note: Microsomes from liver hold many membrane-bound enzymes, among them those of drug oxidation.
Data set [5] deals with T1, LRRK2 (Rattus norvegicus, UniProt F1LNJ1).
T1 construct: from tissue; host or cells: rat brain (Sprague-Dawley rats)
The experiment in a line: In vitro autoradiography in rat brain sections. The class given is binding. The following applies: blocking with 3 (10 μM). As to the method: The general procedure for autoradiography studies was described previously with minor revision in this work.[36],[40] Brain sections from rats were preincubated with Tris-HCl buffer (50 mM), MgCl2 (1.2 mM) and CaCl2 (2 mM) solution for 20 min at ambient temperature, followed by incubation with [^11C]3 and [^18F]4 (0.48 nM). […] After incubation, brain sections were rinsed with ice-cold buffer 3 times for 2 min and dipped in cold distilled water for 10 s. The brain sections were dried with cold air and then placed on imaging plates (BAS-MS2025, GE Healthcare, NJ) for optimized contact periods. Autoradiograms were obtained and regions of interest (ROIs) were carefully drawn with the reference of naked-eye observation. Radioactivity was measured using an Amersham Typhoon 5 analyzer system and expressed as photostimulated luminescence values per unit area (PSL/mm^2) or normalized to % of radioactivity vs control.

Details of data set [6]: method as in earlier work. The following applies: molecular formula strings file; cited from earlier work.

Structures are written as SMILES. Like-named read-outs stand apart in the source and are kept apart here. Bounds are passed on as bounds.

T1 sequence (F1LNJ1 1-2526): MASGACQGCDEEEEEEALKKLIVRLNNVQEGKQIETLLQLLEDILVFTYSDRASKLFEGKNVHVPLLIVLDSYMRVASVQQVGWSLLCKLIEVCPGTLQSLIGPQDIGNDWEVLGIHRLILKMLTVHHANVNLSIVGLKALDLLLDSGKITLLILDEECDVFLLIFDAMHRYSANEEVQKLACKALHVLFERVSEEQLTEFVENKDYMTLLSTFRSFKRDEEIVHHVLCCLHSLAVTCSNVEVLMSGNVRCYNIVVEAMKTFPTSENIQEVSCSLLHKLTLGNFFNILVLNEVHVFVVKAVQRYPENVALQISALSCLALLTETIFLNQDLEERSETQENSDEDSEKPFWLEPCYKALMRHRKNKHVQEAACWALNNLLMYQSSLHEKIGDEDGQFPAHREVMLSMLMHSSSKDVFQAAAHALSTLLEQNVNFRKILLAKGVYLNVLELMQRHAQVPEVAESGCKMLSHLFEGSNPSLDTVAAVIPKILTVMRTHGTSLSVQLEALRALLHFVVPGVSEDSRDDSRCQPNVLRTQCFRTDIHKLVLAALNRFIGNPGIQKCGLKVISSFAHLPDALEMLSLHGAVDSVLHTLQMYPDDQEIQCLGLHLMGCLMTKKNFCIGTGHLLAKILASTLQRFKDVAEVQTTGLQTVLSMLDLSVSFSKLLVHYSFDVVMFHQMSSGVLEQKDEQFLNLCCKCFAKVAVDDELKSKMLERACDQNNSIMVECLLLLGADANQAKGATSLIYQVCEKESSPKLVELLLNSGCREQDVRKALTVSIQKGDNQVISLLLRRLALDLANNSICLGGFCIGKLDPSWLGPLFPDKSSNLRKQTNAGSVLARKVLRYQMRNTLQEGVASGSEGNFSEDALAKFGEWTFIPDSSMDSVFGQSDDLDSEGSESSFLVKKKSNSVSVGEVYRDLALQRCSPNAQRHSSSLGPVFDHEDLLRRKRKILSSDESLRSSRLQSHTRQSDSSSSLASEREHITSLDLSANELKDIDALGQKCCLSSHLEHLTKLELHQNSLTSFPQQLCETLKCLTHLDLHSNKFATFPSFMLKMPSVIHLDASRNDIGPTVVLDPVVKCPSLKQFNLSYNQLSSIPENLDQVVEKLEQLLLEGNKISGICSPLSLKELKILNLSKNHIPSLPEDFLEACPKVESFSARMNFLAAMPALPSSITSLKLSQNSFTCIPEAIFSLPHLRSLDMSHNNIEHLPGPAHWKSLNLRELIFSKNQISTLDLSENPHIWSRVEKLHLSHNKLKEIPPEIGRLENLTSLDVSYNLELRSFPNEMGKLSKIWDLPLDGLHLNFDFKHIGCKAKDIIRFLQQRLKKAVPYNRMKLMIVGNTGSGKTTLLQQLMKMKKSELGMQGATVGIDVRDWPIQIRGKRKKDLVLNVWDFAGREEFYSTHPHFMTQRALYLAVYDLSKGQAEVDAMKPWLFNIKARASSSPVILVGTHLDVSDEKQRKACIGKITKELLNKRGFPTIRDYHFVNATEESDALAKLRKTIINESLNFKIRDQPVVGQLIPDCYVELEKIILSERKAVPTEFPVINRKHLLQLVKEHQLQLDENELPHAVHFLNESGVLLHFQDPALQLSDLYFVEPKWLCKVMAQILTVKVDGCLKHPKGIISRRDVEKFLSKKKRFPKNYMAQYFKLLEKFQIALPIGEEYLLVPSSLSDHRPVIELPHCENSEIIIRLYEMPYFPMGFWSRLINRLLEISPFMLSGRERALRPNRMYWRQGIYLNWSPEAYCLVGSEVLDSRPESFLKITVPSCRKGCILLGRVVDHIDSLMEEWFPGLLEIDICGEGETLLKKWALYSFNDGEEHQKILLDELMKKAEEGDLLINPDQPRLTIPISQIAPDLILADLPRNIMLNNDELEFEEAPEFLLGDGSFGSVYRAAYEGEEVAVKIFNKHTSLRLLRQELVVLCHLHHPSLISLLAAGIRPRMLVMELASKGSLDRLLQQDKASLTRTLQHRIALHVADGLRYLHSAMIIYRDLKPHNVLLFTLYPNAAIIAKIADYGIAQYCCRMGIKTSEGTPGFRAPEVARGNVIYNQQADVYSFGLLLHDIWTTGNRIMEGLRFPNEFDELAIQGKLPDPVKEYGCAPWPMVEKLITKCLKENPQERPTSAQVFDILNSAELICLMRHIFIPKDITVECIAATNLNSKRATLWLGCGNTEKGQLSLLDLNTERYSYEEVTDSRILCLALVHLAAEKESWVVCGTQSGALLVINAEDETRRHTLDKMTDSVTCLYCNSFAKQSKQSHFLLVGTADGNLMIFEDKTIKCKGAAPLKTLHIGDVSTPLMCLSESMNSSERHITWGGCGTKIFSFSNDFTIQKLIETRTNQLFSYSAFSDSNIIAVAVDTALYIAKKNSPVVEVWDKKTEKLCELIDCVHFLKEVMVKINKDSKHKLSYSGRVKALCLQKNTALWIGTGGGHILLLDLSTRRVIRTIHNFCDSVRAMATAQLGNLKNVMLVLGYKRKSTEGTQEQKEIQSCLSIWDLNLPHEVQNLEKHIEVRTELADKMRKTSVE

Consider `CC(C)(C)Cn1ccc2c(N3CCOCC3)nc(-c3ccc(NC(=O)c4ccc([18F])nc4)cc3)nc21` [FMN3PA], for which the Kd on LRRK2 [1] is 20 nM.

For `CN(C)c1ncnc2[nH]cc(-c3ccc([18F])nc3)c12` [compound 1], the Kd at LRRK2 [1] is 6.7 nM.

Turning to `N#Cc1cccc(-c2c[nH]c3ncnc(N4CCOCC4)c23)c1` [compound 3, 3-(4-morpholino-7H-pyrrolo[2,3-d]pyrimidin-5-yl)benzonitrile], the “MDR1 BA/AB” value is given as 1.08 in the data set on MDR1 (MDR1 efflux ratio) and 1.0 in the data set with MDR1 (Table S1). Moreover, the IC50 was 14 nM in the data set on LRRK2 G2019S (biochemical LRRK2 assay, n ≥ 2); above 223000 nM with THLE cells; 25 nM in the data set on LRRK2 [2] (Table S1); 3 nM in the data set with LRRK2 WT (biochemical LRRK2 assay, n ≥ 2). Also, the RRCK PappAB in [3] (Table S1, unit assumed) is 27 10^-6 cm/s; in data set [3] (passive permeability), 26.68 1 × 10^–6 cm/s. In data set [3], the “RRCK Papp AB” value is reported as 26.68. In addition, in [4], the “HLM CL” value was 36 mL/min/kg.

Turning to `N#[11C]c1cccc(-c2c[nH]c3ncnc(N4CCOCC4)c23)c1` [[^11C]3], the “reduction of radioactive uptake under self-blocking” value at LRRK2 [5] (cerebellum) is listed as 83%; on LRRK2 [5] (cerebral cortex) it was 87%; at LRRK2 [5] (hippocampus) it was 87%; on LRRK2 [5] (pons), 64%; on LRRK2 [5] (striatum), 85%; on LRRK2 [5] (thalamus), 83%.

As to `CC(C)(C)Cn1ccc2c(N3CCOCC3)nc(-c3ccc(NC(=O)Nc4ccc([18F])nc4)cc3)nc21` [FMN3PU], the Kd at LRRK2 [1] is 23.6 nM.

For `[18F]c1ccc(-c2c[nH]c3ncnc(N4CCOCC4)c23)cn1` [compound 2], the Kd at LRRK2 [1] was 14.3 nM.

As to `N#Cc1cccc(-c2c[nH]c3ncnc(N4CCOCC4)c23)c1F` [compound 4], the “MDR1 BA/AB” value in the data set with MDR1 (MDR1 efflux ratio) is 1.10. The IC50 in the data set on LRRK2 G2019S (Table S1) is 9 nM; in the data set with THLE cells, 162000 nM; with LRRK2 [2] (whole cellular LRRK2 assay, n ≥ 2), 20 nM; in the data set on LRRK2 WT (Table S1), 3 nM; in the data set on LRRK2 WT (biochemical LRRK2 assay, n ≥ 2) it was 3.58 nM. Moreover, the LogD in data set [6] is given as 2.072. Moreover, the pKa in data set [6] is recorded as 5.61. Besides, the RRCK PappAB in data set [3] (Table S1, unit assumed) is 29.2 10^-6 cm/s; in data set [3] (passive permeability), 29.18 1 × 10^–6 cm/s. The “RRCK Papp AB” value in data set [3] is reported as 29.18. For the same molecule, the “HLM CL” value in data set [4] is reported as 31.4 mL/min/kg.

For the molecule `CNc1nc(Nc2ccc(C(=O)N3CCOCC3)cc2O[11CH3])ncc1C(F)(F)F` [GNE-1023, reference compound], the “MDR1 BA/AB” value in the data set on MDR1 (MDR1 efflux ratio) is listed as 1.2. The “RRCK PappAB” value in data set [3] (passive permeability) is given as 18.2 1 × 10^–6 cm/s. For the same molecule, the IC50 in the data set with LRRK2 WT (biochemical LRRK2 assay, n ≥ 2) is 2 nM.
